Tested on: 885724-159-R-J1-PDC spheroids viability
Assay: Anticancer human tumor 885724-159-R-J1-PDC patient-derived pancreatic adenocarcinoma cell line growth inhibition [TAK]
Details: spheroids with HUVEC and MSC; for IC50: curve of first compound; for viability, T/C: stronger effect = lower value
Excerpt: Combinatorial screen of targeted agents with TAK-243 and ipatasertib in multi-cell type tumor spheroids
A high-throughput screen of multi-cell type tumor spheroids was designed to identify active combinations of targeted small molecules and TAK-243 or ipatasertib. Complex spheroids include a stromal component modeled by human endothelial cells (HUVEC) and fibroblasts modeled by human mesenchymal stem cells (MSCs). The concentration ranges selected for each drug and investigational agent were based upon clinically achievable concentrations if the clinical Cmax of the agent was known.
Compounds. The drugs and investigational agents: TAK-243 (785004), ipatasertib (767898), everolimus (733504), selumetinib (741078), bortezomib (756655), trametinib (758246), ixazomib (758254), vemurafenib (761431), dabrafenib (764134), sapanisertib (764658), alpelisib (765974), and copanlisib (816437), were obtained from the National Cancer Institute (NCI) Developmental Therapeutics Program Chemical Repository. The FDA-approved anticancer drug set is available from the NCI Developmental Therapeutics Program. […] The stock solutions were prepared in dimethyl sulfoxide (DMSO, Sigma-Aldrich, St. Louis, MO, cat. D2650) at 800-fold the tested concentration and stored at -70 degrees C prior to their use. All drugs and investigational agents were tested over a range starting from a high concentration at or near the clinical Cmax and decreasing in half-log increments. If the clinical Cmax for an agent had not been determined, the highest concentration tested was 10 microM.
NCI60 Cell Culture. NCI60 cell lines were obtained from the NCI Developmental Therapeutics Program Tumor Repository. For each lot of cells, the Repository performed Applied Biosystems AmpFLSTR Identifiler testing with PCR amplification to confirm consistency with the published Identifier STR profile for each cell line. Cells were kept in continuous culture for no more than 20 passages. The optimal seeding densities for each of the cell lines at each time point assessed were determined prior to performing the concentration response studies. Briefly, the NCI60 human tumor lines were grown as monolayers in RPMI 1640 medium supplemented with 10% FBS and 2 mmol/L L-glutamine.
An additional 2 lines were from the NCI60 cell line panel including melanomas, MALME-3M and SK-MEL-2. Pooled donor human umbilical vein endothelial cells (HUVEC, Lonza, cat. CC-2519) and human mesenchymal stem cells (hMSC, Lonza, cat. PT-2501) were purchased from Lonza (Walkersville, MD).
PDMR cell lines were grown in complete medium (DC medium): Dulbecco's modified Eagle's medium (DMEM)/F12 supplemented with 5% fetal bovine serum (FBS), 2 mM L-glutamine, 100 U/mL penicillin and 100 µg/ml streptomycin, 0.4 µg/ml hydrocortisone, 10 ng/ml epidermal growth factor (EGF) recombinant human protein, 24 µg/mL adenine, and 0.1 mg/mL primocin. During culture from frozen stock vials, PDMR cells were cultured in the same medium containing 10 µM Y-27632 (see Table 3). The PDCs were cultured in complete DMEM/F12 media without 10 microM Y-27632 dihydrochloride for at least two passages prior to the screen. The pooled donor HUVEC and hMSC were cultured in endothelial cell growth medium 2 (PromoCell, Heidelberg, Germany, cat. C-22011) and mesenchymal stem cell growth medium 2 (PromoCell, cat. C-28009), respectively. For all experiments, HUVEC and hMSC were used at passages </=5.
For the pre-screen, cell seeding densities were determined from a titration spanning the range from 5,000 to 313 cells per well. The mct-spheroids including 60% malignant cells, 25% HUVEC and 15% MSC dispensed as a mixture into U-bottom Ultra-Low Attachment 384-well plates (Corning, NY)
High-throughput Drug Combination Screening.
Prior to their inoculation into 384-well plates, malignant cells, HUVEC, and hMSC were removed from T flasks using TrypLE express (Thermo Fisher Scientific, cat. 12605036) and harvested by centrifugation for 5 min at 233 x g. […]
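Further: spheroids exposed to drugs for seven days.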
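Wherever viability, T/C is given: 100% = DMSO vehicle control viability.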

Work on CC(=O)Nc1cccc(-n2c(=O)n(C3CC3)c(=O)c3c(Nc4ccc(I)cc4F)n(C)c(=O)c(C)c32)c1 + CC(C)NCC(C(=O)N1CCN(c2ncnc3c2C(C)CC3O)CC1)c1ccc(Cl)cc1 yielded an IC50 (second compound 0.3 µM) of 0.357 nM, an IC50 (second compound 0.949 µM) of 0.148 nM and an IC50 (second compound 3 µM) of 0.118 nM. For the same molecule, the IC50 (second compound 9.49 µM) was < 0.0949 nM, the IC50 (second compound 30 µM) was < 0.0949 nM and the viability, T/C (second compound 0.3 µM, first compound 94.9 pM) was 62.1%. It also gave a viability, T/C (second compound 0.3 µM, first compound 0.0003 µM) of 52.4%, a viability, T/C (second compound 0.3 µM, first compound 0.000949 µM) of 39.4% and a viability, T/C (second compound 0.3 µM, first compound 0.003 µM) of 29.7%. For the same molecule, the viability, T/C (second compound 0.3 µM, first compound 0.00949 µM) was 19.8%, the viability, T/C (second compound 0.3 µM, first compound 0.03 µM) was 12.7% and the viability, T/C (second compound 0.949 µM, first compound 94.9 pM) was 51.8%. It also gave a viability, T/C (second compound 0.949 µM, first compound 0.0003 µM) of 46.9%, a viability, T/C (second compound 0.949 µM, first compound 0.000949 µM) of 39.5% and a viability, T/C (second compound 0.949 µM, first compound 0.003 µM) of 26.4%. For the same molecule, the viability, T/C (second compound 0.949 µM, first compound 0.00949 µM) was 16.5%, the viability, T/C (second compound 0.949 µM, first compound 0.03 µM) was 9.03% and the viability, T/C (second compound 3 µM, first compound 94.9 pM) was 50.9%. The viability, T/C (second compound 3 µM, first compound 0.0003 µM) was 47%, the viability, T/C (second compound 3 µM, first compound 0.000949 µM) was 37.3% and the viability, T/C (second compound 3 µM, first compound 0.003 µM) was 27.7%. It also gave a viability, T/C (second compound 3 µM, first compound 0.00949 µM) of 12.6%, a viability, T/C (second compound 3 µM, first compound 0.03 µM) of 7.15% and a viability, T/C (second compound 9.49 µM, first compound 94.9 pM) of 42.9%. The viability, T/C (second compound 9.49 µM, first compound 0.0003 µM) was 39.1%, the viability, T/C (second compound 9.49 µM, first compound 0.000949 µM) was 31.9% and the viability, T/C (second compound 9.49 µM, first compound 0.003 µM) was 20.5%. It also gave a viability, T/C (second compound 9.49 µM, first compound 0.00949 µM) of 9.73%, a viability, T/C (second compound 9.49 µM, first compound 0.03 µM) of 4.47% and a viability, T/C (second compound 30 µM, first compound 94.9 pM) of 29.2%. For the same molecule, the viability, T/C (second compound 30 µM, first compound 0.0003 µM) was 23.4%, the viability, T/C (second compound 30 µM, first compound 0.000949 µM) was 15.1% and the viability, T/C (second compound 30 µM, first compound 0.003 µM) was 6.5%. For the same molecule, the viability, T/C (second compound 30 µM, first compound 0.00949 µM) was 4.94% and the viability, T/C (second compound 30 µM, first compound 0.03 µM) was 2.14%.
Molecule CC(C)CC(NC(=O)C(Cc1ccccc1)NC(=O)c1cnccn1)B(O)O (stereo not given) + CC(C)NCC(C(=O)N1CCN(c2ncnc3c2C(C)CC3O)CC1)c1ccc(Cl)cc1 has an IC50 (second compound 0.3 µM) of 3.48 nM, an IC50 (second compound 0.949 µM) of 1.44 nM and an IC50 (second compound 3 µM) of 1.28 nM. For the same molecule, the IC50 (second compound 9.49 µM) was 0.572 nM, the IC50 (second compound 30 µM) was < 0.0316 nM and the viability, T/C (second compound 0.3 µM, first compound 31.6 pM) was 77.5%. For the same molecule, the viability, T/C (second compound 0.3 µM, first compound 0.0001 µM) was 68.6%, the viability, T/C (second compound 0.3 µM, first compound 0.000316 µM) was 68.7% and the viability, T/C (second compound 0.3 µM, first compound 0.001 µM) was 68.1%. The viability, T/C (second compound 0.3 µM, first compound 0.00316 µM) was 55%, the viability, T/C (second compound 0.3 µM, first compound 0.01 µM) was 0.97% and the viability, T/C (second compound 0.949 µM, first compound 31.6 pM) was 60.3%. It also gave a viability, T/C (second compound 0.949 µM, first compound 0.0001 µM) of 64.1%, a viability, T/C (second compound 0.949 µM, first compound 0.000316 µM) of 59% and a viability, T/C (second compound 0.949 µM, first compound 0.001 µM) of 65.8%. For the same molecule, the viability, T/C (second compound 0.949 µM, first compound 0.00316 µM) was 23.7%, the viability, T/C (second compound 0.949 µM, first compound 0.01 µM) was 1.29% and the viability, T/C (second compound 3 µM, first compound 31.6 pM) was 58.1%. For the same molecule, the viability, T/C (second compound 3 µM, first compound 0.0001 µM) was 58.9%, the viability, T/C (second compound 3 µM, first compound 0.000316 µM) was 58.7% and the viability, T/C (second compound 3 µM, first compound 0.001 µM) was 57.9%. For the same molecule, the viability, T/C (second compound 3 µM, first compound 0.00316 µM) was 20.6%, the viability, T/C (second compound 3 µM, first compound 0.01 µM) was 0.95% and the viability, T/C (second compound 9.49 µM, first compound 31.6 pM) was 48.1%. For the same molecule, the viability, T/C (second compound 9.49 µM, first compound 0.0001 µM) was 54.8%, the viability, T/C (second compound 9.49 µM, first compound 0.000316 µM) was 50.5% and the viability, T/C (second compound 9.49 µM, first compound 0.001 µM) was 49%. The viability, T/C (second compound 9.49 µM, first compound 0.00316 µM) was 21.1%, the viability, T/C (second compound 9.49 µM, first compound 0.01 µM) was 0.94% and the viability, T/C (second compound 30 µM, first compound 31.6 pM) was 31%. It also gave a viability, T/C (second compound 30 µM, first compound 0.0001 µM) of 38.5%, a viability, T/C (second compound 30 µM, first compound 0.000316 µM) of 33.7% and a viability, T/C (second compound 30 µM, first compound 0.001 µM) of 34.5%. For the same molecule, the viability, T/C (second compound 30 µM, first compound 0.00316 µM) was 14.8% and the viability, T/C (second compound 30 µM, first compound 0.01 µM) was 0.56%.

Reference: PubChem BioAssay AID2060348 (Molecular Pharmacology Branch, DTP, NCI, 2025)
